The experiment concerns the target T1, MARK3 (Homo sapiens, UniProt P27448).
T1 construct: purchased Thermo Fisher Scientific (Life Technologies) SelectScreen
Briefly: SelectScreen Z'LYTE. The class given is biochemical. The method in brief:
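NU5455 was profiled across the SelectScreen Broad panel of kinase activity and binding assays. Z'LYTE reactions such as CSF1R ran at apparent Km ATP, while the Adapta CAMK1 assay used ATP listed as 10. Values are given as percent.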

The inhibition is the drop in the measured response relative to a control, in per cent. Low readings indicate little suppression, high ones strong suppression.

The structures appear in SMILES notation.

T1 sequence (P27448 whole entry): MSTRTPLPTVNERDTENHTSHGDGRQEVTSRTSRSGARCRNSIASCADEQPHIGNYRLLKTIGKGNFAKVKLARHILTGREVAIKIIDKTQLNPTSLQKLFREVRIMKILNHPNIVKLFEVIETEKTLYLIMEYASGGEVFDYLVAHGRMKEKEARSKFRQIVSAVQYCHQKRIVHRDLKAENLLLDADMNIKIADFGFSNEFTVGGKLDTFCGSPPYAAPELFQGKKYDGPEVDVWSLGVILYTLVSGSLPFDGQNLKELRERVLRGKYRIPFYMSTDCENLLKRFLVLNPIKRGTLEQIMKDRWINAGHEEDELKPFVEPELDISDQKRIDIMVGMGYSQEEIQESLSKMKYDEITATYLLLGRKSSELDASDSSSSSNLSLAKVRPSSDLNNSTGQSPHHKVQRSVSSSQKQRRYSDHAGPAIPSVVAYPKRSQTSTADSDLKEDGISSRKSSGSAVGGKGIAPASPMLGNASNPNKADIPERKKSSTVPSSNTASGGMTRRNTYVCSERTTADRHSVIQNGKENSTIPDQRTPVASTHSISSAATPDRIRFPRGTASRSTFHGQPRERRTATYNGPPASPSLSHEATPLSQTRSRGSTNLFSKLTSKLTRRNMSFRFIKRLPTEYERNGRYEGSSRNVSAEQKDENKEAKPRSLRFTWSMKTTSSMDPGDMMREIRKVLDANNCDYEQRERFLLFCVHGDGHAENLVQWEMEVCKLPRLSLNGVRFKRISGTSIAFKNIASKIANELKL

`CN(C(=O)CN1CCOCC1)c1ccc2sc3c(-c4cccc5c(=O)cc(N6CC7CCC(C6)O7)oc45)cccc3c2c1` [NU5455] showed an inhibition at 1 µM of 11.4%.

These data come from PMC6934184, “Selective DNA-PKcs inhibition extends the therapeutic index of localized radiotherapy and chemotherapy” (The Journal of Clinical Investigation, 2019).
